BindingDB's records for doi:10.1021/bi7000505 (Wyeth Research, 2007)

Target: T1, Caspase-3 (Homo sapiens, UniProt P42574)
T1 sequence (P42574 whole entry): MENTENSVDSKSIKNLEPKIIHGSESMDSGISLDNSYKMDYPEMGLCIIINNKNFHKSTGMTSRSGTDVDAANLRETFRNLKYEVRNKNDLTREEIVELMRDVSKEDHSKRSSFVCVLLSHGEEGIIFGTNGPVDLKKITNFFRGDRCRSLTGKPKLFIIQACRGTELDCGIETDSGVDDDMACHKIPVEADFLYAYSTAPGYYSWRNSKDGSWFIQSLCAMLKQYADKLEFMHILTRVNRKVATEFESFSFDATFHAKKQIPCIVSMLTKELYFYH

O=C1Nc2ccc(S(=O)(=O)N3CCC[C@H]3COc3cccnc3)cc2C1=O [5-{[(2S)-2-[(pyridin-3-yloxy)methyl]pyrrolidine-1-]sulfonyl}-2,3-dihydro-1H-indole-2,3-dione]
Ki: 16.1 nM

O=C(O)C[C@H](NC(=O)[C@@H](c1ccccc1)n1cccc(NC(=O)c2ccc3ccccc3c2)c1=O)C(=O)COc1ccccc1 [(3S)-3-[(1R)-1-[3-(naphthalene-2-amido)-2-oxo-1,2-dihydropyridin-1-yl]-1-phenylacetamido]-4-oxo-5-phenoxypentanoic acid]
Ki: 165 nM

CN1C(=O)C(=O)c2cc(S(=O)(=O)N3CCC[C@H]3COc3ccccc3)ccc21 [(S)-1-Methyl-5-{1-[2-(phenoxymethyl)pyrrolidinyl]sulfonyl}isatin]
Ki: 11 nM

O=C1C(=O)N(Cc2ccccc2)c2ccc(S(=O)(=O)N3CCC[C@H]3COc3ccccc3)cc21 [JMC522188 Compound 2]
Ki: 2.5 nM
